Reference: patent US9434697B2, “Pyrimidine FGFR4 inhibitors” (priority 2013, dated 2016)
Where two headings read alike, the source gives them in different places.

Legend:
[1] = target: Recombinant FGFR4 (Homo sapiens (Human), UniProt P22455); experiment: Kinase HotSpot assay, IC50 profiling of kinase activity inhibition (FGFR4); type: biochemical; conditions: Table 1; 10 μM ATP
[2] = target: Recombinant FGFR1 (Homo sapiens (Human), UniProt P11362); experiment: Kinase HotSpot assay, IC50 profiling of kinase activity inhibition (FGFR1); type: biochemical; conditions: Table 1; 10 μM ATP
[3] = tested on: HEP3B tumor xenografts; type: in vivo

Sequence of Recombinant FGFR4 (P22455 22-802): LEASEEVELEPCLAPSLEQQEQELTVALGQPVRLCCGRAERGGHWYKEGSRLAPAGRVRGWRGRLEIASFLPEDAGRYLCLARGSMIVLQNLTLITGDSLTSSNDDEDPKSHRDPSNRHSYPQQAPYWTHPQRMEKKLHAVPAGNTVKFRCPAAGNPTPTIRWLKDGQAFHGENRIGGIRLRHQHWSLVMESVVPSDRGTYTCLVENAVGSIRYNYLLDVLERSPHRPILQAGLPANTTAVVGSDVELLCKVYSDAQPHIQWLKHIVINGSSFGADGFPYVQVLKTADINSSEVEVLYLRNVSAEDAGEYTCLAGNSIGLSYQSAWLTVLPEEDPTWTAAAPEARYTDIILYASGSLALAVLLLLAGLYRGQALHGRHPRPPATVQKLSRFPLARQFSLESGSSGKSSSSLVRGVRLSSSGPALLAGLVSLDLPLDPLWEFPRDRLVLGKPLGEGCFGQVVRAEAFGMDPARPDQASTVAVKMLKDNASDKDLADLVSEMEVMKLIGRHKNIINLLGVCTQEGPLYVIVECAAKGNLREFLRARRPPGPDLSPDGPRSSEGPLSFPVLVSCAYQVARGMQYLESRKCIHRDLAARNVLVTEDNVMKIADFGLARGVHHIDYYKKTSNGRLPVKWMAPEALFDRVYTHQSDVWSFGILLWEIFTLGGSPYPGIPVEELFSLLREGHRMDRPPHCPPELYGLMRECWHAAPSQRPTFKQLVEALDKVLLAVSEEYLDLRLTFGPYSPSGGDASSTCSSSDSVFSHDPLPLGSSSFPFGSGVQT
Sequence of Recombinant FGFR1 (P11362 22-822): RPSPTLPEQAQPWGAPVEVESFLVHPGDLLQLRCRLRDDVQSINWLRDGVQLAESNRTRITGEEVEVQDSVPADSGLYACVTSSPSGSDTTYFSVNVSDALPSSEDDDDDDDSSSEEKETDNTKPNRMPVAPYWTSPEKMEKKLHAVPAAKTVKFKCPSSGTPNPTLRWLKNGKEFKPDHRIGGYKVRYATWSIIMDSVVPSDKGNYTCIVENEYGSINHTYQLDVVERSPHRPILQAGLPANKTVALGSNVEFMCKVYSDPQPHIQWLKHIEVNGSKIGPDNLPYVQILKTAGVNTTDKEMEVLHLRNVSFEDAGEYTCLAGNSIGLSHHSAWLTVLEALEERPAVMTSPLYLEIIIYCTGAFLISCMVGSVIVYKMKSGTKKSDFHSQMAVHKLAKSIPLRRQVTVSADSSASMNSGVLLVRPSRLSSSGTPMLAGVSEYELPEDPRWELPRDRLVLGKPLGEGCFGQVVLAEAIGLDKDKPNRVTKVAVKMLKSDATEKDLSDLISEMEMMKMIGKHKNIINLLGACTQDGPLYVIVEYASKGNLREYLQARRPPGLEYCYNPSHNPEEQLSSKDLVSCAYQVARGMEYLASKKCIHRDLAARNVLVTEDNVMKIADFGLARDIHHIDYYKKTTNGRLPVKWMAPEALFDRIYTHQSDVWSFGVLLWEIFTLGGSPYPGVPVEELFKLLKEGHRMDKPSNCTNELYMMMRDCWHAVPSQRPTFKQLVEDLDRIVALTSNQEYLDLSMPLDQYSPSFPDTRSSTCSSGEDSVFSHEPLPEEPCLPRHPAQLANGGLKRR

C=CC(=O)Nc1ccccc1Nc1cc(N(C)C(=O)Nc2cc(OC)cc(OC)c2)ncn1 [Example 102]
IC50 [1]: 853 nM
IC50 [2]: > 10000 nM

C=CC(=O)Nc1cc(N2CCN(CC)CC2)ccc1Nc1cc(N(C)C(=O)Nc2c(Cl)c(OC)cc(OC)c2Cl)ncn1 [Example 108, N-(2-(6-(3-(2,6-Dichloro-3,5-dimethoxyphenyl)-1-methylureido)pyrimidin-4-ylamino)-5-(4-ethylpiperazin-1-yl)phenyl)acrylamide]
comparative in vivo efficacy (tumor volume) ([3]; 25, 37.5 or 50 mg/kg i.p. twice daily, 18 days): more efficacious than BGJ398 at tolerable dosage levels

CCN1CCN(c2ccc(Nc3cc(N(C)C(=O)Nc4c(Cl)c(OC)cc(OC)c4Cl)ncn3)cc2)CC1 [BGJ398]
tolerability (health of animals) ([3]; 30 mg/kg orally twice daily): did not exhibit poor health
comparative in vivo efficacy (tumor volume) ([3]; 60 mg/kg orally twice daily): efficacy comparable to compound 108
tolerability (health of animals) ([3]; 60 mg/kg orally twice daily): terminated on Day 11 due to poor health of animals
